Consider 21 molecules from patent US10123993B2, “Cyclic ureas as inhibitors of rock” (BRISTOL-MYERS SQUIBB COMPANY, priority 2015, dated 2018).

pIC50: −log10 of the molar value.

Chain of ROCK2 (O75116 whole entry, species assumed): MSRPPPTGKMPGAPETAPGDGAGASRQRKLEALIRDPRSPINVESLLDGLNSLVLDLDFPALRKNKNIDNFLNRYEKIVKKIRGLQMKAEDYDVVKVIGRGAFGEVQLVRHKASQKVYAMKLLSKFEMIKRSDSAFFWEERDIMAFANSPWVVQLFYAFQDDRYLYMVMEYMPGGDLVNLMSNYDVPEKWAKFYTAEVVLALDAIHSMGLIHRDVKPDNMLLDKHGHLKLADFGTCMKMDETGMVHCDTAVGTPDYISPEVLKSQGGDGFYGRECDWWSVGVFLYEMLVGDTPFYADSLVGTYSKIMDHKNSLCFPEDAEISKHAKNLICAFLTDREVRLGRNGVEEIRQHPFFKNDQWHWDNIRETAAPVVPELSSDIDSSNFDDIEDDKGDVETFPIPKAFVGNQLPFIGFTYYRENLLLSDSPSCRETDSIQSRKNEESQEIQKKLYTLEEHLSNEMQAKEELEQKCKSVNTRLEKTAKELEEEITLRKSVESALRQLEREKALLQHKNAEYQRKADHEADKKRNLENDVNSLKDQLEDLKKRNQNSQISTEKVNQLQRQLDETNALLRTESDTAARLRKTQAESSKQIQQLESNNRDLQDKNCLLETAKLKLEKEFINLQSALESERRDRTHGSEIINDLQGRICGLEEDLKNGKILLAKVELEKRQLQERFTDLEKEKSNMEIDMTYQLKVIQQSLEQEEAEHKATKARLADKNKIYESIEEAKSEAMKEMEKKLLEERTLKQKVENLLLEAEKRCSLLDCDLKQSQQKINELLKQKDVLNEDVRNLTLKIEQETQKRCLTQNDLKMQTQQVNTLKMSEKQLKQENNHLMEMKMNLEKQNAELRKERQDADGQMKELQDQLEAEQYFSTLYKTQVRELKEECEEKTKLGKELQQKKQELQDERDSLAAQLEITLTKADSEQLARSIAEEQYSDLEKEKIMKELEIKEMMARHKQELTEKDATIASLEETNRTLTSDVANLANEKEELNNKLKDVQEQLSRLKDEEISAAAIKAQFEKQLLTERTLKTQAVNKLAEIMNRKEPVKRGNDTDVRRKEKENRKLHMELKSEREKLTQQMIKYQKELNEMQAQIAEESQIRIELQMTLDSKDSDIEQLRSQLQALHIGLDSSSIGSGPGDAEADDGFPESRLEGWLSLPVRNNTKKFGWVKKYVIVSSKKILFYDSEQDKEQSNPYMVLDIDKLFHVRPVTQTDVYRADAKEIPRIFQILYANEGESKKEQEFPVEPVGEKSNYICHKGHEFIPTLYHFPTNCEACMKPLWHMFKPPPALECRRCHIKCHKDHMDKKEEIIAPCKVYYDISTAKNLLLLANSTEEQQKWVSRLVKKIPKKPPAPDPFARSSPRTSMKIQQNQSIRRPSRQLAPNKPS

One experiment relates to Dahl salt-sensitive rats.
Experiment: not given
The conditions noted are these: rat, in vivo; cited from earlier work.
Regarding `C[C@@H](N)[C@H]1CC[C@H](C(=O)Nc2ccncc2)CC1` [Example Y-27632], the “ventricular hypertrophy, fibrosis and function” value was “improve ventricular hypertrophy, fibrosis and function”.

In another experiment the test system is neointimal formation in rats.
Experiment: not given
The conditions noted are these: cited from earlier work.
On to `C[C@@H](N)[C@H]1CC[C@H](C(=O)Nc2ccncc2)CC1` [Example Y-27632], for which the neointimal formation result is listed as “inhibited neointimal formation”.

Another experiment addresses ROCK2 (Homo sapiens, UniProt O75116). The experiment can be described thus: ROCK2 kinase inhibition assay (Caliper LABCHIP, FITC peptide substrate). It is filed as biochemical. The conditions noted are these: 5 μM ATP, 1.5 μM peptide substrate; value ranges. In short, it runs like this:
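Rho kinase with 5 μM ATP and 1.5 μM FITC-AHA-AKRRRLSSLRA-OH peptide in HEPES pH 7.5, 20 mM MgCl2, 0.015% Brij-35, 4 mM DTT, DMSO <2%. EDTA stop; phospho and non-phospho peptide separated on LabChip. IC50 from dose-response fit.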
The term pIC50 denotes the IC50 on a negative log10 scale, so that one unit is a factor of ten. Lower therefore signals a large IC50. As to `COc1cccc(C(CO)n2ccn(-c3ccc(-c4cn[nH]c4)cc3)c2=O)c1` (single isomer, unassigned) [Example 324, 1-(4-(1H-Pyrazol-4-yl)phenyl)-3-(2-hydroxy-1-(3-methoxyphenyl)ethyl)-1H-imidazol-2(3H)-one], the pIC50 is greater than 8.70.

`O=c1n(Cc2cccc(OCC3CC3)c2)ccn1-c1ccc(-c2cn[nH]c2)cn1` [Example 347, 1-(5-(1H-pyrazol-4-yl)pyridin-2-yl)-3-(3-(cyclopropylmethoxy)benzyl)-1H-imidazol-2(3H)-one] showed a pIC50 of 6.70 to 7.70.

As for `COc1cccc(C(C)N2C(=O)N(c3ccc(-c4cn[nH]c4)cc3)CC2(C)C)c1` (single isomer, unassigned) [Example 145, 1-(4-(1H-pyrazol-4-yl)phenyl)-3-(1-(3-methoxy-phenyl)-ethyl)-4,4-dimethyl-imidazolidin-2-one], the pIC50 was 7.70 to 8.68.

Molecule `CCOc1cccc(C(C)N2CCN(c3ccc(-c4cn[nH]c4)c(CC)n3)C2=O)c1` (single isomer, unassigned) [Example 267, 1-(1-(3-ethoxyphenyl)ethyl)-3-(6-ethyl-5-(1H-pyrazol-4-yl)pyridin-2-yl)imidazolidin-2-one] showed a pIC50 of 5.70 to 6.70.

Turning to `COc1cc(N2CC(=O)N(Cc3ccccc3Cl)C2=O)ccc1-c1cn[nH]c1` [Example 104, 3-(2-chlorobenzyl)-1-(3-methoxy-4-(1H-pyrazol-4-yl)phenyl)imidazolidine-2,4-dione], the pIC50 is 6.70 to 7.70.

As for `COc1cccc(CN2CCN(c3ccc(-c4cn[nH]c4)cc3)C2=O)c1F` [Example 116, 1-(4-(1H-Pyrazol-4-yl)phenyl)-3-(2-fluoro-3-methoxybenzyl)imidazolidin-2-one], the pIC50 was 6.70 to 7.70.

In the case of `COc1ccc(CN2C(=O)N(c3ccc(-c4cn[nH]c4)cc3)CC2(C)C)cc1F` [Example 139, 1-(4-(1H-pyrazol-4-yl)phenyl)-3-(3-fluoro-4-methoxy-benzyl)-4,4-dimethyl-imidazolidin-2-one], the pIC50 is 5.70 to 6.70.

In turn, `COc1cccc(CN2CCN(c3ccc(-c4ccnc(N)n4)cc3)C2=O)c1` [Example 63, 1-(4-(2-Aminopyrimidin-4-yl)phenyl)-3-(3-methoxybenzyl)imidazolidin-2-one] showed a pIC50 of 6.70 to 7.70.

Molecule `O=C1CN(c2ccc(-c3cn[nH]c3)cc2)C(=O)N1Cc1ccccc1Cl` [Example 111, 1-(4-(1H-pyrazol-4-yl)phenyl)-3-(2-chlorobenzyl) imidazolidine-2,4-dione] had a pIC50 of 7.70 to 8.68.

As for `CCc1nc(-n2ccn(C(C)c3cccc(OC)c3)c2=O)ccc1-c1cn[nH]c1` (single isomer, unassigned) [Example 184, 1-(6-ethyl-5-(1H-pyrazol-4-yl)pyridin-2-yl)-3-(1-(3-methoxy-phenyl)-ethyl)-1H-imidazol-2(3H)-one], the pIC50 is 5.70 to 6.70.

Regarding `CC(c1cccc(OCC2CC2)c1)n1ccn(-c2ccc(-c3cn[nH]c3)cc2)c1=O` (single isomer, unassigned) [Example 357, 1-(4-(1H-pyrazol-4-yl)phenyl)-3-(1-(3-(cyclopropylmethoxy)phenyl)ethyl)-1H-imidazol-2(3H)-one], the negative logarithm of the IC50 (pIC50) is 6.70 to 7.70.

`CCc1cc(N2CCN(Cc3ccccc3F)C2=O)ccc1-c1cn[nH]c1` [Example 25, 1-(3-Ethyl-4-(1H-pyrazol-4-yl)phenyl)-3-(2-fluorobenzyl)imidazolidin-2-one]: the pIC50 was 6.70 to 7.70.

Consider `COc1cccc(C(C)N2CCN(c3ccc(-c4cn[nH]c4)c(OC)n3)C2=O)c1` (single isomer, unassigned) [Example 220, 1-(6-methoxy-5-(1H-pyrazol-4-yl)pyridin-2-yl)-3-(1-(3-methoxyphenyl)ethyl)imidazolidin-2-one], for which the pIC50 is 6.70 to 7.70.

In the case of `COc1cccc(CN2C(=O)N(c3ccc(-c4cn[nH]c4)cc3)CC2C(C)(C)O)c1` (single isomer, unassigned) [Example 124, 1-(4-(1H-Pyrazol-4-yl)phenyl)-4-(2-hydroxypropan-2-yl)-3-(3-methoxybenzyl)imidazolidin-2-one], the pIC50 was greater than 8.70.

As to `COc1cccc(C(C)N2CCN(c3ccc(-c4cn[nH]c4)c(C)n3)C2=O)c1` (single isomer, unassigned) [Example 181, 1-(1-(3-methoxy-phenyl)-ethyl)-3-(6-methyl-5-(1H-pyrazol-4-yl)pyridin-2-yl)-imidazolidin-2-one], the pIC50 was 7.70 to 8.68.

Regarding `COc1cccc(CN2CCN(c3ccc(-c4cn[nH]c4)c(F)c3)C2=O)c1F` [Example 433, 1-(2-fluoro-3-methoxybenzyl)-3-(3-fluoro-4-(1H-pyrazol-4-yl)phenyl)imidazolidin-2-one], the pIC50 is 6.70 to 7.70.

In turn, `O=C1CN(Cc2cc(F)ccc2F)C(=O)N1c1ccc(-c2cn[nH]c2)cc1` [Example 83, 3-(4-(1H-pyrazol-4-yl)phenyl)-1-(2,5-difluorobenzyl)imidazolidine-2,4-dione] showed a pIC50 of 5.70 to 6.70.

In turn, `CCc1cc(N2CC(C)(C)N(Cc3cccc(OC)c3)C2=O)ccc1-c1cn[nH]c1` [Example 148, 1-(3-ethyl-4-(1H-pyrazol-4-yl)phenyl)-3-(3-methoxy-benzyl)-4,4-dimethyl-imidazolidin-2-one] had a pIC50 of 7.70 to 8.68.

Molecule `COc1nc(N2CCN(Cc3ccc(F)cc3F)C2=O)ccc1-c1cn[nH]c1` [Example 245, 1-(2,4-difluorobenzyl)-3-(6-methoxy-5-(1H-pyrazol-4-yl)pyridin-2-yl)imidazolidin-2-one] gave a pIC50 of 6.70 to 7.70.

The next experiment relates to rat stroke model.
Experiment: not given
The conditions noted are these: in vivo; cited from earlier work.
Take `O=S(=O)(c1cccc2cnccc12)N1CCCNCC1` [fasudil]: the “infarct size and neurologic deficit” value is “reduce both the infarct size and neurologic deficit”.

The test system of the next experiment is IL-1 beta-induced coronary stenosis.
Experiment: not given
The conditions noted are these: long term treatment; cited from earlier work.
For the molecule `O=S(=O)(c1cccc2cnccc12)N1CCCNCC1` [fasudil], the coronary constrictive remodeling result was “promote a regression of coronary constrictive remodeling” and the coronary stenosis entry is given as “progressively reduce coronary stenosis”.

The test system of a further experiment is spontaneously hypertensive rat, renal hypertensive rat and deoxycortisone acetate salt hypertensive rat models.
Experiment: not given
Conditions: control rats; cited from earlier work.
With `C[C@@H](N)[C@H]1CC[C@H](C(=O)Nc2ccncc2)CC1` [Example Y-27632], the blood pressure result is listed as “only a minor effect on blood pressure”.

The experiment is the same for the next values; noted with them: three rat models of hypertension; cited from earlier work.
For the molecule `C[C@@H](N)[C@H]1CC[C@H](C(=O)Nc2ccncc2)CC1` [Example Y-27632], the blood pressure result is reported as “significantly decrease blood pressure”.
